The subject of data set [1] is mouse macrophage cell line J774.2. The data set is described as follows: In vitro cytotoxicity, MTT method. Conditions: for SI: selectivity index CC50/IC50. As for the experimental part:
(§1) The mouse macrophage cell line J774.2 (ATCC® TIB-67) was used for the evaluation of the in vitro cytotoxicity. Cells were cultured in RPMI medium supplemented with 10% SFB, […], and glutamine (2 mM) at 37 °C and in an atmosphere of 5% CO2. The medium was changed at intervals of every 2 to 3 days. For the cytotoxicity assays, 1 × 10^6 cells were incubated with different concentrations of the compounds (0.78 to 200 µM) at 37 °C for 48 h in an atmosphere of 5% CO2. Cells in the presence of the maximum concentration of DMSO (0.2%) were included as a negative control. The metabolic activity of the cells was determined using the MTT method. The percentage of cell viability was calculated, and the mean cytotoxic concentration (CC50) was determined via a Probit analysis. Three independent assays were performed in triplicate each. Finally, the selectivity index (SI) was calculated using the following formula CC50/IC50.
Background: Tetrazolium assays rely on reduction of a dye to a coloured formazan, in cell work by metabolically active cells.

Data set [2] in a line: In vitro cytotoxicity, MTT method. Conditions: mouse, J774.2 macrophage cells, CC50 (µM), macrophage cell line J774.2, 48 h, MTT; means of three experiments. As for the experimental part: as §1
The target of data set [3] is SARS-CoV-2 spike RBD to human ACE2 (Severe acute respiratory syndrome coronavirus 2, UniProt P0DTC2). The data set is described as follows: biochemical. Conditions: for IC50: IC50 (µM). It counts as binding, SARS-CoV-2 / human.
Data set [4] concerns rats. Conditions: concentrations of 0.03, 0.3, and 3%; cited from earlier work.
Data set [5] deals with S protein with the ACE2 host receptor. Particulars: cell-free ELISA-type assay; cited from earlier work.
The subject of data set [6] is meiobenthic nematodes. Conditions: cited from earlier work.
The subject of data set [7] is S protein. Particulars: block the S protein and inhibit protein-mediated intercellular fusion; cited from earlier work.
The test system of data set [8] is S protein and its host cell receptor ACE2. Particulars: cited from earlier work.
Data set [9] has the same test system. Conditions: cited from earlier work. This is another data set of the same source.

≈ marks a conversion by molar mass, not a printed value. Where “and” joins values, the source holds several entries; their conditions need not be identical. Equal values may be shown once.

The term CC50 denotes the concentration giving 50% cytotoxicity. Read a high CC50 as lower toxicity to the cells. Usually inhibition stands for the relative decrease from the control value, in per cent. The low end stands for a response near the control, the high end for a response far below the control. What is called IC50 is the midpoint of a concentration-inhibition curve. As for `O=C(Nc1ccc2c(O)c(/N=N/c3ccc(/N=N/c4ccc(S(=O)(=O)[O-])cc4)cc3)c(S(=O)(=O)[O-])cc2c1)c1ccccc1.[Na+].[Na+]` [DRI-1, [Na+].[Na+].c1(/N=N/c2ccc(cc2)/N=N/c2c(cc3c(c2O)ccc(c3)NC(=O)c2ccccc2)S(=O)(=O)[O-])ccc(cc1)S(=O)(=O)[O-]], half-maximal cytotoxicity in data set [1] (macrophage cell line J774.2, 48 h, MTT, means of three experiments) (CC50) was put at 94.5 ± 0.96 µM. The molecule further had an SI in [1] of 7.25. Also, in data set [2], the CC50 at 48 h is 94.5 µM. In [3], this molecule returned an inhibition at 50 µM of 90.59 ± 0.54% and an IC50 of 13 ± 0.71 µM.

`O=C(Nc1ccc2c(O)cc(S(=O)(=O)O)cc2c1)Nc1ccc2c(O)cc(S(=O)(=O)O)cc2c1` [DRI-2, c12c(ccc(c1)NC(=O)Nc1cc3c(cc1)c(cc(c3)S(=O)(=O)O)O)c(cc(c2)S(=O)(=O)O)O]: the SI in [1] was 22.6 and 22.62. In data set [3], this molecule had an inhibition at 50 µM of 90.8 ± 1.7% and an IC50 of 8.84 ± 4.3 µM.

`CCN(Cc1cccc(S(=O)(=O)O)c1)c1ccc(C(=C2C=CC(=[N+](CC)Cc3cccc(S(=O)(=O)O)c3)C=C2)c2ccccc2)cc1` [DRI-3, guinea green B]: the SI in data set [1] is 93.4 and 93.45. In data set [3], the inhibition at 50 µM worked out at 99.65 ± 0.25% and the IC50 turned out to be 2.14 ± 0.97 µM. The toxicity in rats result in data set [4] is on record as “initial growth depression in rats, as well as the appearance of malignant tumors”.

`CCOc1ccc(NS(=O)(=O)c2ccc(NC(=O)c3ccc(-c4ccccc4)cc3)cc2)cc1` [DRI-4, S(=O)(=O)(Nc1ccc(cc1)OCC)c1ccc(NC(=O)c2ccc(cc2)c2ccccc2)cc1] gave an SI in [1] of 8.14. Further, the CC50 at 48 h in [2] is > 200 µM. In addition, in data set [3], at 50 µM the inhibition was 76.4 ± 1% and the IC50 was 24.6 ± 2.5 µM.

On to `CC(=O)Nc1ccc(OS(=O)(=O)c2ccc3c4c(cccc24)C(=O)N3)c2ccccc12` [DRI-5, CC(=O)Nc1ccc(OS(=O)(=O)c2ccc3NC(=O)c4cccc2c34)c2ccccc12], for which, in data set [1], the SI was 9.21. Besides, in data set [2], the CC50 at 48 h is 126 ± 2.3 µM. Besides, in [3], the inhibition at 50 µM was found to be 69.9 ± 1.2% and the half-maximal inhibitory concentration (IC50) came to 13.7 ± 0.12 µM.

On to `O=C(Nc1ccc2cc(S(=O)(=O)O)cc(O)c2c1)c1ccc(-c2ccc(C(=O)Nc3ccc4cc(S(=O)(=O)O)cc(O)c4c3)cc2)cc1` [DRI-C91005], for which, in data set [5], the IC50 is 0.16 µM.

As for `C[C@]12CC[C@@H]3c4ccc(OC(=O)c5ccccc5)cc4CC[C@H]3[C@@H]1CC[C@@H]2O` [estradiol benzoate], the “concentration from which significant toxicity starts” value in [6] was ≥ 4.3 pg/mL. In [7], the IC50 was 1.02 µM.

For the molecule `CCC(C)n1ncn(-c2ccc(N3CCN(c4ccc(OCC5COC(Cn6cncn6)(c6ccc(Cl)cc6Cl)O5)cc4)CC3)cc2)c1=O` (stereo not drawn) [itraconazole], in [7], the IC50 is 0.45 µM.

What is called Kd is the concentration at which binding is half-saturated. Take `COc1ccc2c(O[C@@H]3C[C@H]4C(=O)N[C@]5(C(=O)NS(=O)(=O)C6CC6)C[C@H]5/C=C\CCCCN(C)C(=O)[C@@H]4C3)cc(-c3nc(C(C)C)cs3)nc2c1C` [simeprevir]: the Kd in data set [8] is 0.812 µM.

Consider `CS(=O)(=O)c1cccc(C[C@H](NC(=O)c2c(Cl)cc3c(c2Cl)CCN(C(=O)c2ccc4ccoc4c2)C3)C(=O)O)c1` [sodium lifitegrast], for which the Kd in data set [8] was 0.00192 µM.

Consider `CC1=C(C)C(=O)O[C@@H]([C@@H](C)[C@@]2(O)CC[C@H]3[C@@H]4[C@@H]5O[C@@H]5[C@@]5(O)CC=CC(=O)[C@]5(C)[C@H]4CC[C@@]32C)C1` [withanone], for which, in [9], the IC50 was 0.33 ng/mL (≈ 0.701 nM).

The values above are taken from PMC11124852 (Pharmaceutics, 2024).
